Data set [1] has as its target Gamma-secretase. The data set is described as follows: Inhibition of gamma-secretase mediated amyloid beta-40 production in HEK293 cell membranes. In kind it is cell-based, Homo sapiens.
The target in data set [2] is Gamma-secretase. The data set is described as follows: Inhibition of gamma-secretase mediated amyloid beta-40 production in HEK293 cells by whole cell-based assay. More on the design: species or system Homo sapiens.
Data set [3] is described as follows: in vivo. As to conditions: rat, plasma, po, 10 mg/kg.
Description: AUC (0 to 6h) in rat at 10 mg/kg, po

SMILES strings stand for the structures.

As usually defined, the IC50 is the point on the concentration scale where inhibition reaches its midpoint. Low readings indicate greater potency in that assay, high ones weaker potency in that assay. The compound `C[C@H]1CN(CC2CC2)CCN1C(=O)OCC1CCCC(c2cc(F)cc(F)c2)N1S(=O)(=O)c1ccc(Cl)cc1` (mixture of isomers) returned an IC50 in data set [1] of 110 nM.
As a reminder, the AUC(0-t) is exposure summed from dosing to a finite time, without extrapolation to infinity. Higher therefore signals more exposure. With `O=C(OC1(C2CCCC(c3cccc(F)c3)N2S(=O)(=O)c2ccc(Cl)cc2)CC1)N1C2CCC1CC(N1CC[C@@H](O)C1)C2` (mixture of isomers), the 50% inhibitory concentration (IC50) in data set [1] was found to be 3.6 nM; in data set [2] it was 20 nM. This compound gave an AUC(0-t) at 6 h in data set [3] of 2090 ng·h/mL.
For the compound `C[C@H]1CN(C(C)(CO)CO)CCN1C(=O)OC1(C2CCCC(c3cccc(F)c3)N2S(=O)(=O)c2ccc(Cl)cc2)CC1` (mixture of isomers), the half-maximal inhibitory concentration (IC50) is 0.9 nM in data set [1] and 5.1 nM in data set [2]. In data set [3], the AUC(0-t) at 6 h is 1770 ng·h/mL.
For the compound `C[C@H]1CNCCN1C(=O)OC1(C2CCCC(c3cc(F)cc(F)c3)N2S(=O)(=O)c2ccc(Cl)cc2)CC1` (mixture of isomers), the half-maximal inhibitory concentration (IC50) in data set [1] was found to be 16.8 nM; in data set [2], 154 nM.
Take `C[C@H]1CN(CCO)CCN1C(=O)OC1(C2CCCC(c3cccc(F)c3)N2S(=O)(=O)c2ccc(Cl)cc2)CC1` (mixture of isomers): the values for the IC50 in data set [1] and in data set [2] were 2.1 nM and 28.7 nM, respectively. In data set [3], this compound displayed an exposure AUC(0-t) at 6 h of 7210 ng·h/mL.
Consider `C[C@H]1CN(CC2CC2)CCN1C(=O)OC1(C2CCCC(c3cc(F)cc(F)c3)N2S(=O)(=O)c2ccc(Cl)cc2)CC1` (mixture of isomers), for which the IC50 in data set [1] turned out to be 6.1 nM.
As to `CCN1CCN(C(=O)OC2(C3CCCC(c4cc(F)cc(F)c4)N3S(=O)(=O)c3ccc(Cl)cc3)CC2)CC1` (racemic), the figures for the IC50 in data set [1] and in data set [2] were 1.1 nM and 7.5 nM, respectively. In data set [3], the AUC(0-t) at 6 h is 1400 ng·h/mL.
`O=C(OC1(C2CCCC(c3cc(F)cc(F)c3)N2S(=O)(=O)c2cc(F)cc(F)c2)CC1)N1CCN(CCO)CC1` (racemic): the figures for the IC50 in data set [1] and in data set [2] were 16.8 nM and 24.7 nM, respectively. In data set [3], this compound yielded an exposure AUC(0-t) at 6 h of 23100 ng·h/mL.
Compound `CC(C)(OC(=O)N1CCC(N2CCCCC2)CC1)C1CCCC(c2cccc(F)c2)N1S(=O)(=O)c1ccc(Cl)cc1` (racemic) gave an IC50 in data set [1] of 4.4 nM. In addition, the AUC(0-t) at 6 h in data set [3] worked out at 2430 ng·h/mL.
In the same order, the values of `O=C(OCC1CCCC(c2cccc(F)c2)N1S(=O)(=O)c1ccc(Cl)cc1)N1CCC(N2CCCCC2)CC1` (racemic) are 11.2 nM and 1380 ng·h/mL.
With `CN1CN(C)C2(CCN(C(=O)OCC3CCCC(c4cc(F)cc(F)c4)N3S(=O)(=O)c3ccc(Cl)cc3)CC2)C1=O` (racemic), it took 26.8 nM to reach half-maximal inhibition in data set [1] (IC50).
Take `O=C(OC1([C@H]2CCC[C@@H](c3cc(F)cc(F)c3)N2S(=O)(=O)c2ccc(Cl)cc2)CC1)N1CCC2(CC1)C(=O)NCN2c1ccccc1` (racemic): the half-maximal inhibitory concentration (IC50) in data set [1] came to 8.5 nM.
`O=C(OCC1CCCC(c2cc(F)cc(F)c2)N1S(=O)(=O)c1ccc(Cl)cc1)N1CCN(C2CCCCC2)CC1` (racemic) had an IC50 in data set [1] of 36.1 nM. Compared with the last compound, the IC50 is about 4.2-fold higher.
The compound `O=C(OCC1CCCC(c2cc(F)cc(F)c2)N1S(=O)(=O)c1ccc(Cl)cc1)N1CCNCC1` (racemic) came in with an IC50 in data set [1] of 74.8 nM.
`CN(c1ccccc1)C1CCN(C(=O)OC2(C3CCCC(c4cccc(F)c4)N3S(=O)(=O)c3ccc(Cl)cc3)CC2)CC1` (racemic) registered a half-inhibitory concentration (IC50) in data set [1] of 15.4 nM. This IC50 is about 4.9-fold lower than that of the compound before.
On to `O=C(OC1(C2CCCC(c3cccc(F)c3)N2S(=O)(=O)c2ccc(Cl)cc2)CC1)N1CCC(N2CCC(F)(F)CC2)CC1` (racemic), for which the 50% inhibitory concentration (IC50) came to 2.3 nM in data set [1] and 5.5 nM in data set [2]. This compound registered an AUC(0-t) at 6 h in data set [3] of 1670 ng·h/mL.
On to `CCCC1(O)CCN(C(=O)OC2(C3CCCC(c4cccc(F)c4)N3S(=O)(=O)c3ccc(Cl)cc3)CC2)CC1` (racemic), for which the figures for the IC50 in data set [1] and in data set [2] were 4.5 nM and 10.7 nM, respectively.
For the compound `CC1CN(C(=O)OC2(C3CCCC(c4cccc(F)c4)N3S(=O)(=O)c3ccc(Cl)cc3)CC2)CC(C)N1` (racemic), the IC50 in data set [1] amounted to 5.3 nM; in data set [2], 120 nM. In data set [3], the area under the curve AUC(0-t) at 6 h was 1810 ng·h/mL.
Take `O=C(OC1(C2CCCC(c3cccc(F)c3)N2S(=O)(=O)c2ccc(Cl)cc2)CC1)N1CCN(CCO)CC1` (racemic): the IC50 in data set [1] worked out at 1.9 nM; in data set [2], 7 nM. Besides, in data set [3], the area under the curve AUC(0-t) at 6 h is 2090 ng·h/mL.
As for `O=C(OC1(C2CCCC(c3cc(F)cc(F)c3)N2S(=O)(=O)c2ccc(Cl)cc2)CC1)N1CCC(N2CCCCC2)CC1` (racemic), the half-maximal inhibitory concentration (IC50) in data set [1] was 0.3 nM; in data set [2], 5.8 nM. Moreover, the AUC(0-t) at 6 h in data set [3] came to 1080 ng·h/mL.
For `CC(C)N1CCN(C(=O)OC2(C3CCCC(c4cc(F)cc(F)c4)N3S(=O)(=O)c3ccc(Cl)cc3)CC2)CC1` (racemic), the values for the IC50 in data set [1] and in data set [2] were 2.7 nM and 17 nM, respectively. The AUC(0-t) at 6 h in data set [3] turned out to be 783 ng·h/mL.
Compound `CN(c1ccccc1)C1CCN(C(=O)OCC2CCCC(c3cc(F)cc(F)c3)N2S(=O)(=O)c2ccc(Cl)cc2)CC1` (racemic) showed a half-inhibitory concentration (IC50) in data set [1] of 165 nM.
For the compound `O=C(OC1(C2CCCC(c3cccc(F)c3)N2S(=O)(=O)c2ccc(Cl)cc2)CC1)N1C2CCC1CC(N1CCCCC1)C2` (racemic), the results for the IC50 in data set [1] and in data set [2] were 2.6 nM and 9.7 nM, respectively. This compound had an AUC(0-t) at 6 h in data set [3] of 2880 ng·h/mL.
On to `CCC(CO)NC1CC2CCC(C1)N2C(=O)OC1(C2CCCC(c3cccc(F)c3)N2S(=O)(=O)c2ccc(Cl)cc2)CC1` (racemic), for which the IC50 in data set [1] is 5.2 nM; in data set [2], 21.5 nM. This compound also had an AUC(0-t) at 6 h in data set [3] of 3070 ng·h/mL.
In the same order, the values of `O=C(OC1(C2CCCC(c3cc(F)cc(F)c3)N2S(=O)(=O)c2cc(F)cc(F)c2)CC1)N1CCC(N2CCCCC2)CC1` (racemic) are 3.5 nM, 12.9 nM and 5050 ng·h/mL.
Consider `O=C(OC1(C2CCCC(c3cccc(F)c3)N2S(=O)(=O)c2ccc(Cl)cc2)CC1)N1CCC(O)(C2CC2)CC1` (racemic), for which the IC50 in data set [1] is 3.7 nM; in data set [2], 7.7 nM.
Regarding `O=C(OC[C@H]1CCC[C@@H](c2cc(F)cc(F)c2)N1S(=O)(=O)c1ccc(Cl)cc1)N1CCC2(CC1)C(=O)NCN2c1ccccc1` (racemic), the IC50 in data set [1] amounted to 152 nM. This counts as sub-micromolar.
Same read-out and setting: the value for `CN1CN(C)C2(CCN(C(=O)OC3(C4CCCC(c5cc(F)cc(F)c5)N4S(=O)(=O)c4ccc(Cl)cc4)CC3)CC2)C1=O` (racemic) was 5.3 nM; that for `O=C(OC1(C2CCCC(c3cc(F)cc(F)c3)N2S(=O)(=O)c2ccc(Cl)cc2)CC1)N1CCN(C2CCCCC2)CC1` (racemic) was 4.2 nM.
On to `O=C(OC1(C2CCCC(c3cc(F)cc(F)c3)N2S(=O)(=O)c2ccc(Cl)cc2)CC1)N1CCNCC1` (racemic; form 1), for which the half-maximal inhibitory concentration (IC50) in data set [1] is 7.9 nM.
`O=C(OC1(C2CCCC(c3cccc(F)c3)N2S(=O)(=O)c2ccc(Cl)cc2)CC1)N1CCC(N2CCCCC2)CC1` (racemic; form 1) gave an IC50 in data set [1] of 0.7 nM.
In the case of `Cl.O=C(OC1(C2CCCC(c3cc(F)cc(F)c3)N2S(=O)(=O)c2ccc(Cl)cc2)CC1)N1CCNCC1` (racemic; form 2), the results for the IC50 in data set [1] and in data set [2] were 7.9 nM and 106 nM, respectively. In addition, the area under the curve AUC(0-t) at 6 h in data set [3] is 6210 ng·h/mL.
In the case of `Cl.O=C(OC1(C2CCCC(c3cccc(F)c3)N2S(=O)(=O)c2ccc(Cl)cc2)CC1)N1CCC(N2CCCCC2)CC1` (racemic; form 2), the IC50 was 0.8 nM in data set [1] and 5 nM in data set [2]. For the same compound, the area under the curve AUC(0-t) at 6 h in data set [3] is 802 ng·h/mL.
